From ChEMBL document CHEMBL5653615 (J Biol Chem, 2013)

How the values were obtained:
[1] = biological target: T1, Serine/threonine-protein kinase Chk1 (Homo sapiens) (UniProt O14757); assay: Inhibition of human CHK1 at 18.6 nM by HotSpot assay relative to control
T1 sequence (whole entry): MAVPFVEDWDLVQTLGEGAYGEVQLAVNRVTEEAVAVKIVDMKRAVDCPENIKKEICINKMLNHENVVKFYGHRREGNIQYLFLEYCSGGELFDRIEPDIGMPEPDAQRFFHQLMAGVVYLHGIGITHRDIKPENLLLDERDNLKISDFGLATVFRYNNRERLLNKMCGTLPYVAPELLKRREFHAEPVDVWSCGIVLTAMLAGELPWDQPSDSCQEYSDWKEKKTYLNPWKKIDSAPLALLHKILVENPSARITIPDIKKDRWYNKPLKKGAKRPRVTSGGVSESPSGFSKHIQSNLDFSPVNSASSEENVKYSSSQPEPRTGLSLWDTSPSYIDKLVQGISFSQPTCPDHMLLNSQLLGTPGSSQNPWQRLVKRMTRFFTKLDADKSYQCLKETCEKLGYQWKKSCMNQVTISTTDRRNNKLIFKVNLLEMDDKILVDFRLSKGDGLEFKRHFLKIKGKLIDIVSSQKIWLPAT

[2] = biological target: T2, Tyrosine-protein kinase ZAP-70 (Homo sapiens) (UniProt P43403); assay: Inhibition of human ZAP70 at 18.6 nM by HotSpot assay relative to control
T2 sequence (whole entry): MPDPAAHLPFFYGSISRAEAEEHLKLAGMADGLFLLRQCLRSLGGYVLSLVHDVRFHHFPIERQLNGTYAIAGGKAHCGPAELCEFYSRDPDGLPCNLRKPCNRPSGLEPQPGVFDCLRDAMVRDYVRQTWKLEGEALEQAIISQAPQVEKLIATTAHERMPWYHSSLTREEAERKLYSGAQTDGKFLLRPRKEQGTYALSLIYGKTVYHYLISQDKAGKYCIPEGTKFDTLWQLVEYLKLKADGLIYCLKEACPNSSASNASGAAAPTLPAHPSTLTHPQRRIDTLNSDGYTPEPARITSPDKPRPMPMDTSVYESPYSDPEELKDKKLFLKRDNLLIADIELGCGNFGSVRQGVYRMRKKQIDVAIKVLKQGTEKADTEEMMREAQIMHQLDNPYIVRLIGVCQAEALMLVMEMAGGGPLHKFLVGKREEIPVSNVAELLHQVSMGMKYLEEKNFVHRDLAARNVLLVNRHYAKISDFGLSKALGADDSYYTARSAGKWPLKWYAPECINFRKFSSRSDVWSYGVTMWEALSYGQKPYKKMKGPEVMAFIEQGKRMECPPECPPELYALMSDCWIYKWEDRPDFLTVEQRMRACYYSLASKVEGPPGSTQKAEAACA

[3] = biological target: Mitogen-activated protein kinase 11 (Homo sapiens) (UniProt Q15759); assay: Inhibition of human MAPK11 at 18.6 nM by HotSpot assay relative to control
Chain of Mitogen-activated protein kinase 11 (Homo sapiens) (Q15759 whole entry): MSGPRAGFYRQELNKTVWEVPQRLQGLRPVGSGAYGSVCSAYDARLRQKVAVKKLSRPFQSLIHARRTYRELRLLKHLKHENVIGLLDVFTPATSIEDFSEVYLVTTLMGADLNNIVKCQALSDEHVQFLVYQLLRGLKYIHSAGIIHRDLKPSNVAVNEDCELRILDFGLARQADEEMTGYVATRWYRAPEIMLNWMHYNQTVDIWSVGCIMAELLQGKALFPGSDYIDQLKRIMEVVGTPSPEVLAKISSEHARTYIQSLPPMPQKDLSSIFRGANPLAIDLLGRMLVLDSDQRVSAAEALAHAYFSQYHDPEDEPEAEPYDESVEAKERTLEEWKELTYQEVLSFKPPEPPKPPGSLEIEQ

[4] = biological target: Glycogen synthase kinase-3 alpha (Homo sapiens) (UniProt P49840); assay: Inhibition of human GSK3a at 18.6 nM by HotSpot assay relative to control
Chain of Glycogen synthase kinase-3 alpha (Homo sapiens) (P49840 2-483 limits assumed): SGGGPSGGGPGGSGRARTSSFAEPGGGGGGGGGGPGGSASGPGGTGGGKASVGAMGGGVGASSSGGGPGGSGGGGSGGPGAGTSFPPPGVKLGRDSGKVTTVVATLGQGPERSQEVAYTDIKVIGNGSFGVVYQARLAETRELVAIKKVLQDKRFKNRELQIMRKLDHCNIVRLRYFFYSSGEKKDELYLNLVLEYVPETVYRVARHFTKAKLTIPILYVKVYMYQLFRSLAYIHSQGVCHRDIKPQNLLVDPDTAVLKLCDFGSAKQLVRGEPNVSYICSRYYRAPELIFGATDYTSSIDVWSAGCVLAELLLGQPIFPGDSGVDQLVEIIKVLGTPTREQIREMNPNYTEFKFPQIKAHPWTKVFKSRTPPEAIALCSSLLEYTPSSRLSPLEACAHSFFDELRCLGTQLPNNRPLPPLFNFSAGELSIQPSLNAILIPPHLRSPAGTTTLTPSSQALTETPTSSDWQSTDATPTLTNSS

[5] = biological target: Wee1-like protein kinase (Homo sapiens) (UniProt P30291); assay: Inhibition of human WEE1 at 18.6 nM by HotSpot assay relative to control
Chain of Wee1-like protein kinase (Homo sapiens) (P30291 whole entry, looked up): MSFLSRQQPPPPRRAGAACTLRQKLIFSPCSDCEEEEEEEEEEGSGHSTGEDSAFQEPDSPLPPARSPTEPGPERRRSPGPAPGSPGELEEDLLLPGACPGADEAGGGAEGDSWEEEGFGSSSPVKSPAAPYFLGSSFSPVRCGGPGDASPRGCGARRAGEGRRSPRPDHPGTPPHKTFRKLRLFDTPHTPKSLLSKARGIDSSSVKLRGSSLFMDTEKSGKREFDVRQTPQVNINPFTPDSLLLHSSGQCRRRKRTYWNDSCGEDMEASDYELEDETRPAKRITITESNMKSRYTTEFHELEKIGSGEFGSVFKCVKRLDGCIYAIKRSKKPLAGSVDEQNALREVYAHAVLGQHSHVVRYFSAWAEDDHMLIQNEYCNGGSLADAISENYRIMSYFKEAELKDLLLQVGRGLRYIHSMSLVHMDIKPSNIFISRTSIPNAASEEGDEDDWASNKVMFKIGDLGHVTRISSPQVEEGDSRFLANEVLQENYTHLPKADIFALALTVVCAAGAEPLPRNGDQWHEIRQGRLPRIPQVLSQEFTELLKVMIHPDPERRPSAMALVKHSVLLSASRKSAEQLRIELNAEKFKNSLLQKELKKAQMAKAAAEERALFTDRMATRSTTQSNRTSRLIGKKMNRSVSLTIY

[6] = biological target: Serine/threonine-protein kinase N2 (Homo sapiens) (UniProt Q16513); assay: Inhibition of human PRK2 at 18.6 nM by HotSpot assay relative to control
Chain of Serine/threonine-protein kinase N2 (Homo sapiens) (Q16513 whole entry, looked up): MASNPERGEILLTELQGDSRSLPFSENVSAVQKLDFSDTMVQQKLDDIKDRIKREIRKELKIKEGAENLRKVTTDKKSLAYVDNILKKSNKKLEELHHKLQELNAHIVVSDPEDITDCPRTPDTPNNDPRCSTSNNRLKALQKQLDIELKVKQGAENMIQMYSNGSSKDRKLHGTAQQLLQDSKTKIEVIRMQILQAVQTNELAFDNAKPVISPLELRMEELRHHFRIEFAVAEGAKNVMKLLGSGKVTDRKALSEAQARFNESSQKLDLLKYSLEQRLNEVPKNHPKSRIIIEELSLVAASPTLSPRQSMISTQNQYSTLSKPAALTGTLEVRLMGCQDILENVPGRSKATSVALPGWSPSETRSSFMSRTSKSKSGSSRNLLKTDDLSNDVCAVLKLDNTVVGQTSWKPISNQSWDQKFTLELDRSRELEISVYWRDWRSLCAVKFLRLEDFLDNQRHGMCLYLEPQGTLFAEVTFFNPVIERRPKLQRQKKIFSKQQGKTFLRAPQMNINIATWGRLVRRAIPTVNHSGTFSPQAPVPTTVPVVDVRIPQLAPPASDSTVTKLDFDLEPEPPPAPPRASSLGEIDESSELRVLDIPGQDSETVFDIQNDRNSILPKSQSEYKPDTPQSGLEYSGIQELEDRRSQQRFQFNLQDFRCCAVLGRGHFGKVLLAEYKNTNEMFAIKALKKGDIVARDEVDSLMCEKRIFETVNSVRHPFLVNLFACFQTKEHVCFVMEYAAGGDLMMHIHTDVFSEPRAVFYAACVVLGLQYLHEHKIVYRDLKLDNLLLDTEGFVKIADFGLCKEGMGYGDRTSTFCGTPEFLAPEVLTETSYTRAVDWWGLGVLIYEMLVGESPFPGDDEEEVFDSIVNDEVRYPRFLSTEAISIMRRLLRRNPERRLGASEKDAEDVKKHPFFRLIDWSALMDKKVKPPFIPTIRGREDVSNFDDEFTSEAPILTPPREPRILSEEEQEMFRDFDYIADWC

[7] = biological target: Serine/threonine-protein kinase MARK2 (Homo sapiens) (UniProt Q7KZI7); assay: Inhibition of human PAR-1Ba at 18.6 nM by HotSpot assay relative to control
Chain of Serine/threonine-protein kinase MARK2 (Homo sapiens) (Q7KZI7 whole entry): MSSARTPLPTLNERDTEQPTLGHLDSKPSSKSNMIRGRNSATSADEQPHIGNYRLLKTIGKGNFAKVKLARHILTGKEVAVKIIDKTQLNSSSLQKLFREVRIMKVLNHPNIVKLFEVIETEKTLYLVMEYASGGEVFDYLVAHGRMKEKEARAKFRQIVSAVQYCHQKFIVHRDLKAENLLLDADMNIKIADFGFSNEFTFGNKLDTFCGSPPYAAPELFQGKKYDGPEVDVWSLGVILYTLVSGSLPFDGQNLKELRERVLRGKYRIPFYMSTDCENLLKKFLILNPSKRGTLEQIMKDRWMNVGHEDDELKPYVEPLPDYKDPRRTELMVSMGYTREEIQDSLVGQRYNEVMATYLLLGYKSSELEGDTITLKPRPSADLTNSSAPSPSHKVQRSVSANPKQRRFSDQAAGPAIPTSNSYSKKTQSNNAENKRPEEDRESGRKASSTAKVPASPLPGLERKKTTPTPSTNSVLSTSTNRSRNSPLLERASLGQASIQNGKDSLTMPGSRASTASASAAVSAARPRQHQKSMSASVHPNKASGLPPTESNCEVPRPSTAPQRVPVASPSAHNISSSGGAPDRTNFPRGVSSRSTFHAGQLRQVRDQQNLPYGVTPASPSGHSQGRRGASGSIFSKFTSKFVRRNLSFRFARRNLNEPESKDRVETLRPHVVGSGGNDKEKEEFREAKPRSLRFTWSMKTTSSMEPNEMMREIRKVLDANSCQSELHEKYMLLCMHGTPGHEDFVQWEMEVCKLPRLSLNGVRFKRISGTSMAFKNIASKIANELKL

[8] = biological target: T3, CDK3/Cyclin E (Homo sapiens) (UniProt P24864+Q00526); assay: Inhibition of human CDK3/cyclin E at 18.6 nM by HotSpot assay relative to control; format: protein-complex assay
T3 sequence (P24864 whole entry, looked up): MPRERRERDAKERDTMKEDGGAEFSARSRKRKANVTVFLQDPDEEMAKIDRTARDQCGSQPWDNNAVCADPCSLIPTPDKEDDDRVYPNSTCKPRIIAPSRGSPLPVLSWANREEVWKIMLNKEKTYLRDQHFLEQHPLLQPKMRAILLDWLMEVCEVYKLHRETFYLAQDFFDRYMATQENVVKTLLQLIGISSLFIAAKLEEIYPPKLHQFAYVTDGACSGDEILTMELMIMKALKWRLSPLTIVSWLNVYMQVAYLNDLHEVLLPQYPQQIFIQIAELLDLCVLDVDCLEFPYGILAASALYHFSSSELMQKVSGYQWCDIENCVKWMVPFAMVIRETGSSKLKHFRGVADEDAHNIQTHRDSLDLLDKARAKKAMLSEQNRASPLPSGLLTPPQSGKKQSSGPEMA
T3 sequence (Q00526 whole entry, looked up): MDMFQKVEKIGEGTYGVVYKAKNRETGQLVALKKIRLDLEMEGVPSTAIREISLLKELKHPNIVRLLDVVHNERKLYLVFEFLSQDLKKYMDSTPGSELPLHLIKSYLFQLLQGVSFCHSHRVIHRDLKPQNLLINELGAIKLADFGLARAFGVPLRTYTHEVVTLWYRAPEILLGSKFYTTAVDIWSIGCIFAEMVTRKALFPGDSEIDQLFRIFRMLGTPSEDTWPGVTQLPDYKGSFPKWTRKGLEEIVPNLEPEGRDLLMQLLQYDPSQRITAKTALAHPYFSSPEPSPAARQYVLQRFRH

[9] = biological target: Ribosomal protein S6 kinase alpha-4 (Homo sapiens) (UniProt O75676); assay: Inhibition of human RPS6KA4 at 18.6 nM by HotSpot assay relative to control
Chain of Ribosomal protein S6 kinase alpha-4 (Homo sapiens) (O75676 whole entry, looked up): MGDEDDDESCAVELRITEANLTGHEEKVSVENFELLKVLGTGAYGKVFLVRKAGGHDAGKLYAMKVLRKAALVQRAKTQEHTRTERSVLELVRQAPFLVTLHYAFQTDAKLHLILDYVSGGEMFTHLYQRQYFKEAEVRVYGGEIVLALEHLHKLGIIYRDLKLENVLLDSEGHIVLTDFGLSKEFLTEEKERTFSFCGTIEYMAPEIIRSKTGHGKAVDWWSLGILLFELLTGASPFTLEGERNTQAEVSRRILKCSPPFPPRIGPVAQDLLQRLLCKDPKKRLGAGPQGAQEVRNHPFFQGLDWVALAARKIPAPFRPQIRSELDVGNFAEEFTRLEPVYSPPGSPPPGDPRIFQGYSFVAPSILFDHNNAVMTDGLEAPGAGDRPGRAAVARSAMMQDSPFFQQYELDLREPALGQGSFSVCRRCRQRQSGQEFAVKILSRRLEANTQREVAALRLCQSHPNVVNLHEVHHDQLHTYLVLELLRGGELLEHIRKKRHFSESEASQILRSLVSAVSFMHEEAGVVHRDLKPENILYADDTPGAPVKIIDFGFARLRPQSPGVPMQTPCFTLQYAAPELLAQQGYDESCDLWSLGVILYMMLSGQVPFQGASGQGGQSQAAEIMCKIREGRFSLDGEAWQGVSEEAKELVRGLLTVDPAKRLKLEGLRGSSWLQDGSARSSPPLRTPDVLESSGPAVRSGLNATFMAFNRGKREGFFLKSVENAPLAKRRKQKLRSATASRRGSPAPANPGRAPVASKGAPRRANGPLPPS

[10] = biological target: T4, Serine/threonine-protein kinase Sgk2 (Homo sapiens) (UniProt Q9HBY8); assay: Inhibition of human SGK2 at 1.82 nM by HotSpot assay relative to control
T4 sequence (whole entry): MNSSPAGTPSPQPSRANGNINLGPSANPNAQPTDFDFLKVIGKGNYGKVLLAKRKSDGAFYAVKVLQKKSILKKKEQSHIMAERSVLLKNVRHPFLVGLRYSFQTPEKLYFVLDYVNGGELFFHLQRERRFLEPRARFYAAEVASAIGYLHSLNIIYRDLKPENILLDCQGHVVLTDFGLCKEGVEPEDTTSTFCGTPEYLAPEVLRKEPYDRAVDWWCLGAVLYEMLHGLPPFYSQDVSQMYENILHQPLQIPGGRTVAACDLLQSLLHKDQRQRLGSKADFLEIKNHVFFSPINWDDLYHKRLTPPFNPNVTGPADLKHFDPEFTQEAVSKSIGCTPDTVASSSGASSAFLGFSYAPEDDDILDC

[11] = biological target: RAC-alpha serine/threonine-protein kinase (Homo sapiens) (UniProt P31749); assay: Inhibition of human AKT1 at 1.82 nM by HotSpot assay relative to control
[12] = biological target: Serine/threonine-protein kinase B-raf (Homo sapiens) (UniProt P15056); assay: Inhibition of human BRAF at 1.82 nM by HotSpot assay relative to control
[13] = biological target: T5, Tyrosine-protein kinase Tec (Homo sapiens) (UniProt P42680); assay: Inhibition of human TEC at 1.82 nM by HotSpot assay relative to control
T5 sequence (whole entry): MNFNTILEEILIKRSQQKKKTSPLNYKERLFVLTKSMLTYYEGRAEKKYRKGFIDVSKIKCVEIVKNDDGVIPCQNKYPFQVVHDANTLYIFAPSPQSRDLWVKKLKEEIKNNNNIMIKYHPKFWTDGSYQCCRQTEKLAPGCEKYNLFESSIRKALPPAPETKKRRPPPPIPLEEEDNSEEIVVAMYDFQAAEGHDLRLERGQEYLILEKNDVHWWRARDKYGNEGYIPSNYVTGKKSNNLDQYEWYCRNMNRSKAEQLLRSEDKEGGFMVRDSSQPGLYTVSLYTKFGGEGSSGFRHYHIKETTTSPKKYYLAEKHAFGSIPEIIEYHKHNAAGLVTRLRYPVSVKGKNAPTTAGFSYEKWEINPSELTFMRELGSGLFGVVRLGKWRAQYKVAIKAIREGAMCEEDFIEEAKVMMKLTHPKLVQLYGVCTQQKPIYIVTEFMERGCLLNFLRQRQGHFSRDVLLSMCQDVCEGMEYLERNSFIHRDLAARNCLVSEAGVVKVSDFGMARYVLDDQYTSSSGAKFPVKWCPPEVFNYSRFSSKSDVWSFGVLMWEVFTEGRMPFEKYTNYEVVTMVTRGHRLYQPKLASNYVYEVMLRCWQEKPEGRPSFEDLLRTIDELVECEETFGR

[14] = biological target: T3, CDK3/Cyclin E (Homo sapiens); assay: Inhibition of human CDK3/cyclin E at 1.82 nM by HotSpot assay relative to control; format: protein-complex assay

inhibition [1] | inhibition [2] | inhibition [3] | inhibition [4] | inhibition [5] | inhibition [6] | inhibition [7] | inhibition [8] | inhibition [9] | inhibition [10] | inhibition [11] | inhibition [12] | inhibition [13] | inhibition [14] | Compound
-5.11% | -3.52% | -4.21% | -3.5% | 7.34% | 1.32% | -3.78% | 0.86% | -2.53% |  |  |  |  |  | C[C@]1(O)C[C@@H](c2nc(-c3ccc4ccc(-c5ccccc5)nc4c3)c3c(N)nccn32)C1
 |  |  |  |  |  |  |  |  | -0.21% | 1.89% | 7.49% | -3.36% | 0.42% | C[C@@]1(C(=O)Nc2ccc(F)nc2)CCCN1c1nc(Nc2cc(C3CC3)n[nH]2)c2cccn2n1
